This assay has as its system CEM cells HIV-1 protection, formazan growth assay. Nature of the assay: NCI AIDS Antiviral Assay. The settings on record: for IC50: measured here: growth of uninfected CEM cells. The essentials: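 Five concentrations of each compound were applied to infected and uninfected human CEM cells. Protection from HIV-1 was judged from growth measured with a soluble formazan assay.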

“And” between values parts separate entries of the source, which are not always exact repeats. Identical values can stand only once. The source made the active and inactive calls.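 Rule for the calls: active = compounds giving half or more protection of infected cells from virus-caused growth loss, again on retest; inactive = the rest.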 Where a SMILES comes first, the peptide text is derived from it.

The term EC50 denotes the concentration needed to bring the measured effect to its halfway point. For orientation: IC50 means the midpoint of a concentration-inhibition curve. Higher therefore signals weaker potency. As for `O=[N+]([O-])/C(Cl)=C(\NCCN/C(C(Cl)=C(Cl)Cl)=C(/Cl)[N+](=O)[O-])C(Cl)=C(Cl)Cl`, the EC50 was greater than 200 µM and the IC50 worked out at 61.7 µM.
The like results for `COC1(OC)C2C=CC1C([C@](C)(N)CO)C2` (some centres not stated) were, in that order, greater than 1100 µM and greater than 1100 µM.
On to `Cc1ccccc1-c1nc2c(N)nc(N)nc2nc1N`, for which the outcome was inactive.
With `CC12OC(=O)[C@@]3(O)CCC4C(C[C@H]5O[C@]56CC=CC(=O)[C@]46C)C45OC[C@H]6C(=O)O[C@@H]1C[C@@]6(C)[C@H](C4=O)C23O5` (some centres not stated), the EC50 is greater than 200 µM and the IC50 was determined as 0.398 µM.
Turning to `COc1ccc(C2NC3=C(CCCC3)C3(C#N)C(=O)N=C(N)C23C#N)cc1` (configuration not stated), the EC50 was greater than 200 µM and the IC50 is 107 µM.
As to `Cc1cc([N+](=O)[O-])ccc1Nc1cccc(Cl)c1C`, the result was inactive.
For `CC(C(=O)Oc1ccc2ccccc2c1-c1c(O)ccc2ccccc12)c1ccccc1` (configuration not stated), the EC50 was greater than 2.51 µM and the IC50 was greater than 2.51 µM.
As to `CN1CCC(O)(c2ccc(F)cc2)C(C(=O)c2ccc(F)cc2)C1` (configuration not stated), the EC50 was greater than 200 µM and the IC50 was 72.4 µM.
For `[Cu+2].[O-]/C(=N\N=C\c1ccccn1)c1ccccc1O.[O-]/C(=N\N=C\c1ccccn1)c1ccccc1O` the same measures were greater than 200 µM and 10.2 µM.
The like results for `COc1ccc2[nH]c3cc4c(=O)c5cc(OC)ccc5[nH]c4cc3c(=O)c2c1` were, in that order, greater than 72.4 µM and greater than 72.4 µM.
Turning to `COC1/C=C/OC2(C)Oc3c(C)c(O)c4c(O)c(c(/C=N/N5CCN(Cc6cccc(C(F)(F)F)c6)CC5)c(O)c4c3C2=O)NC(=O)C(C)=C/C=C/C(C)C(O)C(C)C(O)C(C)C(OC(C)=O)C1C` (configuration not stated), the EC50 was greater than 200 µM and the IC50 was determined as 6.92 µM.
The like results for `CCC(C)C(NC(=O)C(N)CCCCN)C(=O)NC(CCC(N)=O)C(=O)NC(CO)C(=O)NC(C(=O)O)C(C)O` (configuration not stated) (H-KIQST-OH; configuration not given here) were, in that order, greater than 115 µM and greater than 115 µM.
Take `CN(C)CC1C(O)C2CCN1CC2` (configuration not stated): the result was inactive.
For the compound `COCCCNC1=C(C#N)C(=O)NC2(CCCC2)S1`, the EC50 is greater than 525 µM and the IC50 is greater than 525 µM.
In the case of `O=C(N/N=C/C=C/c1ccccc1)c1ccccc1Nc1ccccc1C(=O)N/N=C/C=C/c1ccccc1`, the EC50 is greater than 34.7 µM and the IC50 was determined as 4.9 µM.
Consider `O=c1[nH]n(Cc2ccccn2)c2ccc([N+](=O)[O-])cc12`, for which the EC50 was greater than 200 µM and the half-inhibitory concentration (IC50) was greater than 200 µM.
For the compound `Cc1c(/C=N/NC(=S)N2CCCCC2)c(=O)n(-c2ccccc2)n1C`, the EC50 is greater than 200 µM and the IC50 was 28.8 µM.
The like results for `CCOC(=O)c1nc2ccc(C(F)(F)F)cc2nc1NCc1ccc(F)cc1` were, in that order, greater than 200 µM and 23.4 µM.
For `CCOC(=O)C1(C(=O)OCC)C(C(C)(C)C)=C(C)c2ccccc21` the same measures were greater than 50.1 µM and 20.4 µM.
The like results for `O=C(CCCC[n+]1ccccc1)Sc1ccccc1C(=O)Nc1ccc(S(=O)(=O)NC(=O)c2ccccc2)cc1` were, in that order, 18.2 µM and 61.7 µM.
On to `CS/C(=N\N=C(/C)c1ccccn1)SS/C(=N/N=C(\C)c1ccccn1)SC`, for which the EC50 is greater than 2 µM and the IC50 came out at 0.00741 µM.
For `O=P(O)(Cc1ccccc1)OCC1(O)OCC(O)C(O)C1O` (configuration not stated) the same measures were greater than 200 µM and greater than 200 µM.
With `Cc1cccc(C(C)(C)C)c1NC(=O)CC1Sc2ccccc2NC1=O` (configuration not stated), the EC50 was greater than 51.3 µM and the IC50 was greater than 51.3 µM.
Consider `Cc1ccccc1-c1c(N)nc(NC#N)nc1C(=O)Nc1ccccc1`, for which the result was inactive.
Consider `COc1ccc(-c2c3ccccc3c(-c3ccc(OCCCCCBr)cc3)c3ccccc23)cc1`, for which the EC50 was greater than 2.75 µM and the IC50 is greater than 2.75 µM.
Turning to `NC(=O)C(=Cn1c(=S)[nH]c2ccccc21)C(N)=O`, the EC50 is greater than 200 µM and the IC50 is greater than 200 µM.
Regarding `O=C1CN(N2C(=O)CSC2C23CC4CC(CC(C4)C2)C3)C(=O)CN1c1ccccc1` (configuration not stated), the EC50 is greater than 151 µM and the half-maximal inhibitory concentration (IC50) is greater than 151 µM.
Turning to `O=[N+]([O-])c1ccccc1Nc1ccccc1[N+](=O)[O-]`, the EC50 is greater than 52.5 µM and the IC50 was greater than 52.5 µM.
As to `O=c1[nH]nc(-c2cccc(Br)c2)[nH]1`, the EC50 is greater than 200 µM and the IC50 was greater than 200 µM.
For the compound `COC(=O)C(Cc1ccccc1)NS(=O)(=O)c1ccc(-c2c3nc(c(-c4ccc(S(=O)(=O)NC(Cc5ccccc5)C(=O)OC)cc4)c4ccc([nH]4)c(-c4ccc(S(=O)(=O)NC(Cc5ccccc5)C(=O)OC)cc4)c4nc(c(-c5ccc(S(=O)(=O)NC(Cc6ccccc6)C(=O)OC)cc5)c5ccc2[nH]5)C=C4)C=C3)cc1` (configuration not stated), the EC50 is greater than 126 µM and the IC50 was greater than 126 µM.
As for `C1=CC2C=CC(C=C1)[PH+]2c1ccccc1.C1=CC2C=CC(C=C1)[PH+]2c1ccccc1.[C-]#[O+].[C-]#[O+].[C-]#[O+].[Fe]` (configuration not stated), the EC50 is greater than 17.8 µM and the IC50 is greater than 17.8 µM.
Turning to `CC(=O)O[C@@H]1O[Si](C(C)(C)C)(C(C)(C)C)[C@H](C)[C@H]1C`, the EC50 is greater than 100 µM and the IC50 is greater than 100 µM.
On to `Cc1c(NC=C(C#N)C#N)c(=O)n(-c2ccccc2)n1C`, for which the EC50 is greater than 200 µM and the IC50 is greater than 200 µM.
As to `COc1ccc(-c2c(C#N)c(N)n(C3OC(COC(C)=O)C(OC(C)=O)C(OC(C)=O)C3OC(C)=O)c(=S)c2C#N)cc1` (configuration not stated), the EC50 was greater than 200 µM; the IC50 was 83.2 µM and 115 µM.
For `CCOC(=O)C(NC(=O)c1ccccc1)(Nc1ccc(Cl)cc1C(F)(F)F)C(F)(F)F` (configuration not stated), the EC50 is greater than 200 µM and the IC50 came to 3.55 µM.
Consider `CCN(CC)CCn1c(=O)c2cccnc2n2c3c(=O)n(C)c(=O)n(C)c3nc12`, for which the concentration for a half-maximal effect (EC50) is greater than 129 µM and the IC50 turned out to be 60.3 µM.
With `CC1(c2ccc(Cl)cc2)C2C(=O)NC(=O)C1C(=O)NC2=O` (configuration not stated), the EC50 was greater than 813 µM and the IC50 stood at 490 µM.
For `CC1=NNC(=O)C1C1C=C(c2c[nH]c3ccccc23)OC1=O` (configuration not stated) the same measures were greater than 200 µM and 102 µM.
The like results for `COc1ccc(/C=C/C(=O)CC(=O)/C=C/c2ccc(OC)cc2)cc1` were, in that order, greater than 200 µM and greater than 200 µM.
The like results for `CN(C)CCCNC(=O)c1nc(NC(=O)c2nc(NC(=O)c3nc(NC(=O)c4ccc(C(=O)Nc5cn(C)c(C(=O)Nc6cn(C)c(C(=O)Nc7cn(C)c(C(=O)NCCCN(C)C)n7)n6)n5)cc4)cn3C)cn2C)cn1C` were, in that order, greater than 50.1 µM and greater than 50.1 µM.
As to `CCC[CH2][Sn]1([CH2]CCC)[O]Cc2nc(C)ccc2[O]1`, the EC50 was greater than 14.1 µM and the IC50 was determined as 3.16 µM.
The like results for `Clc1ccc(CSc2ccc3nncc(SCc4ccc(Cl)c(Cl)c4)c3c2)cc1Cl` were, in that order, greater than 41.7 µM and 37.2 µM.
The like results for `CON(C)C(=O)CNC(=O)OCC1c2ccccc2-c2ccccc21` were, in that order, greater than 200 µM and greater than 100 µM.
For the compound `O=S(=O)(O)c1cccc2c1CN1CCCCC1C2` (configuration not stated), the EC50 was greater than 200 µM and the IC50 was greater than 200 µM.
With `O=C(NCCCCCCNC(=O)n1cc(F)c(=O)[nH]c1=O)NCCCOCCOCCCNC(=O)C(O)C(O)C(O)C(O)CO` (configuration not stated), the outcome was inactive.
Consider `COc1cccc(Nc2nc(N)nc(N)c2N)c1`, for which the EC50 is greater than 200 µM and the IC50 is 26.3 µM.
Consider `CCN(CC)CCOc1ccc(C(O)(Cc2ccc(OC)cc2)c2ccccc2)cc1` (configuration not stated), for which the outcome was inactive.
With `C=C1CCC[C@@H]2[C@@](C)(CC3=CC(=O)C=CC3=O)C(C)CC[C@]12C` (some centres not stated), the EC50 was greater than 60.3 µM and the concentration for half-maximal inhibition (IC50) was 0.427 µM.
The like results for `CCc1cccc(CC)c1NC(=O)CC1SC(N)=NC1=O` (configuration not stated) were, in that order, greater than 427 µM and greater than 427 µM.
The like results for `CN(C)P(CCP(CCP(N(C)C)N(C)C)c1ccccc1)N(C)C` were, in that order, greater than 617 µM and greater than 617 µM.
On to `CCCCOC(=O)C(=O)C(CC(CC)C(=O)c1ccccc1)C(=O)C=C(C)C` (configuration not stated), for which the EC50 is greater than 646 µM and the IC50 is greater than 646 µM.
Turning to `COc1cccc(C=C(C(C)=O)C(C)=O)c1`, the EC50 was greater than 120 µM and the IC50 was 58.9 µM.
For `CC(C)c1nc2c(c(=O)o1)CCS2` the same measures were greater than 182 µM and greater than 182 µM.
The like results for `O=C1CC(CC(O)C(O)C(O)CO)CC(=O)N1` (configuration not stated) were, in that order, greater than 200 µM and greater than 200 µM.
Regarding `C/C(=N\NC(=S)Nc1ccc(C(=O)O)cc1)c1ccccn1`, the EC50 was greater than 110 µM and the IC50 was 18.2 µM.
As for `C/C=C/CC(C)[C@@H](O)[C@H](NC)C(=O)O` (some centres not stated), the result was inactive.
Take `COc1cc(CCCC(O)COc2cccc3c2C2(O)CCCCCC32)cc(OC)c1` (configuration not stated): the EC50 is greater than 200 µM and the 50% inhibitory concentration (IC50) was determined as 12.6 µM.
In the case of `S=C(SSC(=S)N(Cc1ccccc1)Cc1ccccc1)N(Cc1ccccc1)Cc1ccccc1`, the EC50 was greater than 200 µM and the IC50 was 15.1 µM.
For `NC(CSS(=O)(=O)O)=NC1CCCCC1` the same measures were greater than 200 µM and 138 µM.
Regarding `O=C(/C=C/c1ccccc1)c1cccs1`, the EC50 is greater than 200 µM and the IC50 was found to be 3.72 µM.
The like results for `COc1cc(C2NCCC(c3ccccc3)(c3ccccc3)N2)cc(OC)c1OC` (configuration not stated) were, in that order, greater than 200 µM and 19.5 µM.
With `CCCCCCCCCCCCCCC(F)C(=O)OCC1OC(CO)(OC2OC(CO)C(O)C(O)C2O)C(O)C1O` (configuration not stated), the EC50 is greater than 200 µM and the IC50 worked out at 95.5 µM.
`C(=C\c1ccnc2ccccc12)/c1ccc2c(c1)OCO2`: the result was inactive and the IC50 turned out to be 66.1 µM.
For the compound `CC(=O)OC1CC2C(=S)Nc3cc4c(cc3C(=O)N2C1)OCO4` (configuration not stated), the EC50 is greater than 200 µM and the IC50 is greater than 200 µM.
With `CC(=O)O.[Ag]`, the EC50 was greater than 64.6 µM and the IC50 was 18.2 µM.
For `COc1ccccc1C1C(C(=O)Nc2ccccc2)=C(C)NC(C)=C1C(=O)Nc1ccccc1` the same measures were greater than 21.9 µM and greater than 21.9 µM.
For `COc1cc(/C=C2\N=C(C)N(n3c(-c4ccccc4)nc4ccccc4c3=O)C2=O)cc(OC)c1OC` the same measures were greater than 200 µM and 38.9 µM.

Source of the values: PubChem BioAssay AID179 (DTP/NCI, 2004).
